Data from US6344452B1, “1,5-benzodiazepine derivatives” (Zeria Pharmaceuticals Co., Ltd., priority 1998, dated 2002).

How the values were obtained:
CCK-B receptor = target: T1, CCK-B receptor (Cavia porcellus, UniProt H0VZC5); assay: CCK-B receptor binding test ([3H]CCK-B, guinea pig cerebral cortex); details: [3H]CCK-B 1.0 nM, guinea pig cerebral cortex membranes, 25° C., 2 hours; read-out: binding inhibition constant (Ki value)
T1 construct: the homogenate was provided as a receptor sample; from tissue; host or cells: guinea pig cerebral cortex membrane homogenate
T1 sequence (H0VZC5 1-426): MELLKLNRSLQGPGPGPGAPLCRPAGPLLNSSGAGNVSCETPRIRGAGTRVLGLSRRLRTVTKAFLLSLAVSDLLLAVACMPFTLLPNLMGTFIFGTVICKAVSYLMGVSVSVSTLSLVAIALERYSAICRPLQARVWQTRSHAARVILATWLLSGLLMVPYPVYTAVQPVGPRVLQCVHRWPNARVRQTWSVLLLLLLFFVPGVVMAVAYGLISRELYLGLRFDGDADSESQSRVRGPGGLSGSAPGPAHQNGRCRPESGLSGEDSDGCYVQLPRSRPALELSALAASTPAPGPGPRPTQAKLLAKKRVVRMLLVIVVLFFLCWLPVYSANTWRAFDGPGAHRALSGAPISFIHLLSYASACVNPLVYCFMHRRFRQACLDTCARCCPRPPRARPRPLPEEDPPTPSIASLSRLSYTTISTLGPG
Description: <CCK-B Receptor Binding Test>
From a male Hartley strain guinea pig, the cerebral cortex was removed. After the cerebral cortex was homogenized with 50 mM tris-HCl buffer (pH 7.4) in an amount 50 times as much as the weight of the cerebral cortex, the homogenate was centrifuged under 50,000 g for 10 minutes. With respect to the resulting pellet, addition of the same buffer in the same amount and centrifugation were repeated twice. […]
As a binding experiment, a [^3H]CCK-B solution of a final concentration of 1.0 nM (50 μL) and the receptor sample (protein content: 800 μg/tube) (900 μL) were added to the solvent, the CCK-B solution of a final concentration of 1.0 μM or a test compound solution (50 μL), followed by a reaction at 25° C. for 2 hours. […] ACS-II scintillator was added to the filter and, after the filter was left over for 24 hours, the radioactivity concentration on the filter was measured by a liquid scintillation counter. A binding in the presence of CCK-B (1 μM) was recorded as a non-specific binding, while a value obtained by subtracting the non-specific binding from a full binding, which had been obtained using the solvent instead of CCK-B, was recorded as a specific binding. From the specific binding of [^3H]CCK-B, the binding inhibition constant (Ki value) of the compound was calculated.

[1] = test system: pentagastrin-stimulated acid secretion; assay: Inhibition test on pentagastrin-stimulated acid secretion in rats; type: in vivo, rat; details: SD rats, acid output 1st to 4th hour after administration
Description: <Inhibition Test on Pentagastrin-stimulated Acid Secretion in Rats>
Male Sprague-Dawley (SD) strain rats were used. Under anesthesia with ethyl ether, operations were performed on each rat to ligate the gastric antrum and also to arrange an intraduodenal catheter and a gastric fistula tube. After completion of the operations, the rat was placed in a Ballmann cage, and pentagastrin was continuously injected at 15 μg/kg/hr through the caudal vein. Each test compound was formed into a suspension by using a 0.5% carboxymethylcellulose sodium solution (hereinafter called “the solvent”). Upon an elapsed timeof 1 hour from the initiation of the injection of pentagastrin, the solvent or the test compound was administered through the intraduodenal catheter. The acidity of sampled gastric juice was measured using an autotitrater, and a product of the acidity and the amount of the gastric juice was recorded as an acid output. […] [formula]

CCK-A receptor = target: T2, CCK-A receptor (Cavia porcellus, UniProt Q63931); assay: CCK-A receptor binding test ([3H]L-364,718, guinea pig pancreas); details: [3H]L-364,718 0.2 nM, guinea pig pancreas membranes, 25° C., 2 hours; read-out: binding inhibition constant (Ki value)
T2 construct: The homogenate was provided as a receptor sample; from tissue; host or cells: guinea pig pancreas membrane homogenate
T2 sequence (Q63931 1-430): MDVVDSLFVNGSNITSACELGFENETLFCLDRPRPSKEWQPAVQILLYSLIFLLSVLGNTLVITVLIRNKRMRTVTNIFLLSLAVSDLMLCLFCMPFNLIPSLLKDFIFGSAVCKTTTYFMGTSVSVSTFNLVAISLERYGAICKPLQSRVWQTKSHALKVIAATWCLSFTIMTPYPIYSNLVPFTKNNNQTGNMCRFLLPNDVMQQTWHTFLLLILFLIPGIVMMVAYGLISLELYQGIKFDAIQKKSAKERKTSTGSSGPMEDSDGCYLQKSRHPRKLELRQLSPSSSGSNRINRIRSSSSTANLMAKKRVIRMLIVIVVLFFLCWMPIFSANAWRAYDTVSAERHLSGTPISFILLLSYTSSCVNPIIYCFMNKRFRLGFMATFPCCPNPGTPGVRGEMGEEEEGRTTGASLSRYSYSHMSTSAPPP
Description: <CCK-A Receptor Binding Test>
From a male Hartley strain guinea pig, the pancreas was removed. The pancreas was homogenized with 10 mM PIPES buffer (pH 6.5, hereinafter called “the solvent”) in an amount 40 times as much as the weight of the pancreas. The solvent contained EGTA (1 mM), magnesium chloride (30 mM), bacitracin (0. 02%) , soybean trypsin inhibitor (0.02%), and sucrose (0.3 M). After filtered through gauze, the homogenate was centrifuged under 50,000 g for 10 minutes. To the resulting pellet, the solvent was added again in an amount as much as the pellet, followed by centrifugation. To the thus-obtained pellet the solvent was added in an amount 40 times as much as the pellet, and the pellet was homogenized. […]
As a binding experiment, a solution (50 μL) of [^3H]L-364,718 (devazepide), said solution having a final concentration of 0.2 nM, and the receptor sample (protein content: 50 μg/tube) (900 μL) were added to the solvent, an L-364,718 solution of a final concentration of 1 μM or a test compound solution (50 μL), followed by a reaction at 25° C. for 2 hours. […] ACS-II scintillator was added to the filter and, after the filter was left over for 24 hours, the radioactivity concentration on the filter was measured by a liquid scintillation counter. […] From the specific binding of [^3H]L-364,718, the binding inhibition constant (Ki value) of the compound was calculated.

[2] = test system: pentagastrin-stimulated acid secretion; assay: Inhibition test on pentagastrin-stimulated acid secretion in beagles with Heidenhain pouch; type: in vivo, beagle; details: 1 mg/kg oral (gelatin capsules), acid output 1st to 4th hour after administration
Description: <Inhibition Test on Pentagastrin-stimulated Acid Secretion in Beagles with Heidenhain Pouch>
Male beagles with Heidenhain pouch formed beforehand were used. Pentagastrin was continuously and intravenously injected at 4 μg/kg/hr. Upon an elapsed time of 3 hours after the initiation of the continuous injection of pentagastrin, each test compound was filled in gelatin capsules and orally administered. The acidity of sampled gastric juice was measured using an autotitrater, and a product of the acidity and the amount of the gastric juice was recorded as an acid output. Supposing -that an acid output during 1 hour preceding the administration was 100%, acid output over 3 hours ranging from the 1st hour to the 4th hour after the administration of the test compound were converted into percentages (acid output percentages). Based on such acid output percentages, the acid output inhibition rate of each beagle was determined using the below-described formula. An average of such acid output inhibition rates was recorded as the acid inhibition rate of the compound. […] [formula]

| melting point | Ki (CCK-B receptor) [nM] | Ki (CCK-A receptor) [nM] | Compound | acid secretion inhibition ([1]; 0.3 mg/kg intraduodenal) [%] | acid secretion inhibition [2] [%] | acid secretion inhibition ([1]; 0.1 mg/kg intraduodenal) [%] |
| --- | --- | --- | --- | --- | --- | --- |
| 215 to 216 °C (dec.) |  |  | CC(C)(C)C(=O)CN1C(=O)C(NC(=O)Nc2cccc(C(C)(C)C(=O)O)c2)CN(C2CCCCC2)c2ccccc21 (racemic) [Example 1, (±)-2-[3-[3-(1-tert-butylcarbonylmethyl-2-oxo-5-cyclohexyl-1,3,4,5-tetrahydro-2H-1,5-benzodiazepin-3-yl)ureido]phenyl]-2-methylpropionic acid] |  |  |  |
|  | 0.74 | 438 | CC(C)(C)C(=O)CN1C(=O)[C@H](NC(=O)Nc2cccc(C(C)(C)C(=O)O)c2)CN(C2CCCCC2)c2ccccc21 [Example 2, (R)-(−)-2-[3-[3-(1-tert-butylcarbonylmethyl-2-oxo-5-cyclohexyl-1,3,4,5-tetrahydro-2H-1,5-benzodiazepin-3-yl)ureido]phenyl]-2-methylpropionic acid] | 72.7 | 77.9 |  |
|  |  |  | CC(C)(C)C(=O)CN1C(=O)[C@H](NC(=O)Nc2cccc(C(C)(C)C(=O)O)c2)CN(C2CCCCC2)c2ccccc21 [Example 5, sodium (R)-2-[3-[3-(1-tert-butylcarbonylmethyl-2-oxo-5-cyclohexyl-1,3,4,5-tetrahydro-2H-1,5-benzodiazepin-3-yl)ureido]phenyl]-2-methylpropionate] | 79.3 |  | 48.4 |
